From BindingDB's records for doi:10.1021/jm300804e (National Institute of Allergy and Infectious Diseases, 2012) come the findings set out here.

Assay [1] in a line: Inhibition of Bacillus anthracis Protective antigen-mediated cytotoxicity in HT1080 cells compound co-treated for 5 hrs with antigen measured after 48 hrs by MTT assay in presence of FP59.
The nature of assay [2]: Inhibition of matrix metalloprotease activated Bacillus anthracis Protective antigen-mediated cytotoxicity in HT1080 cells compound co-treated for 5 hrs with antigen measured after 48 hrs by MTT assay in presence of FP59. In general terms: Tetrazolium dyes change colour on reduction, which living cells bring about.
Assay [3] can be described thus: Inhibition of Bacillus anthracis Protective antigen-mediated cytotoxicity in RAW264.7 cells compound co-treated for 5 hrs with antigen measured after 48 hrs by MTT assay in presence of FP59.
Assay [4] in a line: Inhibition of Bacillus anthracis Protective antigen-mediated cytotoxicity in RAW264.7 cells compound co-treated for 5 hrs with antigen by MTT assay in presence of lethal factor.

Take `NC(=O)c1ccccc1NC(=O)c1ccc(C(=O)Nc2ccccc2C(N)=O)cc1`: the EC50 – broadly, the concentration giving half of the maximal effect – in assay [1] was determined as 1000 nM; in assay [2] it was 1000 nM; in assay [3], 1000 nM; in assay [4], 3000 nM.
For the molecule `Oc1ccccc1/C=N/c1ccc(Cc2ccc(/N=C/c3ccccc3O)c(O)c2)cc1O`, the EC50 amounted to 1000 nM in assay [1], 1000 nM in assay [2], 1000 nM in assay [3] and 3000 nM in assay [4].
